Measurements as given in patent publication US7338959B2, “Diamino-pyrimidines and their use as angiogenesis inhibitors” (SmithKline Beecham Corporation, priority 2002, dated 2008).
Counter-ions that a name gives are not always drawn.

Assays:
GST-VEGFR2 = biological target: T1, GST-VEGFR2 (Homo sapiens, UniProt P35968); assay: VEGF-R2 enzyme assay (VEGF-E), LANCE method; assay type: biochemical; settings: GST-VEGFR2, 75 uM ATP, biotinylated peptide
T1 construct: baculovirus expressed recombinant constructs of the intracellular domains of human TIE2 tagged by GST; made in house
T1 sequence (P35968 786-1356 limits assumed): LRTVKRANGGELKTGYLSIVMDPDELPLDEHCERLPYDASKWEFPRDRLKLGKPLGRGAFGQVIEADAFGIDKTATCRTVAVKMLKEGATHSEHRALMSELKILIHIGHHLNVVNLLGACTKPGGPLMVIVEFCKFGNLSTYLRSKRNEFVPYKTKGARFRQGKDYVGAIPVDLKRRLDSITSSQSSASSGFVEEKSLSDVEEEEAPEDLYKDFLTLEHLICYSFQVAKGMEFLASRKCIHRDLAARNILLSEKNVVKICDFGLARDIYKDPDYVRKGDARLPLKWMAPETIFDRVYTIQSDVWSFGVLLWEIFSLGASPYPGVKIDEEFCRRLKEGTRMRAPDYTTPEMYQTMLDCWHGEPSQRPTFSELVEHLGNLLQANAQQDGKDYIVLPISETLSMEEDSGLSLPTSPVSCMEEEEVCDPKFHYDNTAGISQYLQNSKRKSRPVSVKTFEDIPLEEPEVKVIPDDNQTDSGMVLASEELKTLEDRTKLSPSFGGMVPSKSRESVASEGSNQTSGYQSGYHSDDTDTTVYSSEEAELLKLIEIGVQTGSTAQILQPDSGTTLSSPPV
From the text: VEGF-R2 Enzyme Assay (VEGF-E)
The VEGF enzyme assay used the LANCE method (Wallac) and GST-VEGFR2, baculovirus expressed recombinant constructs of the intracellular domains of human TIE2 tagged by GST. The method measured the ability of the purified enzymes to catalyse the transfer of the γ-phosphate from ATP onto tyrosine residues in a biotinylated synthetic peptide, (biotin-aminohexyl-EEEEYFELVAKKKK-NH2). This peptide phosphorylation was detected using the following procedure: GST-VEGFR2 was incubated for 40-60 mins at room temperature with 75 uM ATP, 5 mM MgCl2, 0.1 mM DTT, 0.1 mg/mL BSA and the test compound (diluted from a 10 mM stock in DMSO for desired concentration) in 100 mM HEPES buffer. The reaction was stopped by the addition of EDTA (final concentration 50 mM). Streptavidin linked-APC (allophycocyanin, Molecular Probe) and Europium-labeled anti-phosphorylated tyrosine antibody (Wallac) were then added at the final concentration of 15 nM and 1 nM, respectively. The APC signal was measured using an ARVO multilabel counter (Wallac Berthold, Japan). The percent inhibition of activity was calculated relative to blank control wells. The concentration of test compound that inhibits 50% of activity (IC50) was interpolated using nonlinear regression (Levernberg-Marquardt) and the equation, y=Vmax (1−x/(K+x))+Y2, where “K” was equal to the IC50. The IC50 values were converted to pIC50 values, i.e., −log IC50 in Molar concentration.

Recombinant GST-Tie2 = Recombinant GST-Tie2 (Homo sapiens, UniProt Q02763); assay: Tie2 fluorescence polarization kinase activity assay (TIE2-FP); assay type: biochemical; settings: activated Tie2, 200 μM ATP, peptide substrate
Sequence of Recombinant GST-Tie2 (Q02763 23-1124): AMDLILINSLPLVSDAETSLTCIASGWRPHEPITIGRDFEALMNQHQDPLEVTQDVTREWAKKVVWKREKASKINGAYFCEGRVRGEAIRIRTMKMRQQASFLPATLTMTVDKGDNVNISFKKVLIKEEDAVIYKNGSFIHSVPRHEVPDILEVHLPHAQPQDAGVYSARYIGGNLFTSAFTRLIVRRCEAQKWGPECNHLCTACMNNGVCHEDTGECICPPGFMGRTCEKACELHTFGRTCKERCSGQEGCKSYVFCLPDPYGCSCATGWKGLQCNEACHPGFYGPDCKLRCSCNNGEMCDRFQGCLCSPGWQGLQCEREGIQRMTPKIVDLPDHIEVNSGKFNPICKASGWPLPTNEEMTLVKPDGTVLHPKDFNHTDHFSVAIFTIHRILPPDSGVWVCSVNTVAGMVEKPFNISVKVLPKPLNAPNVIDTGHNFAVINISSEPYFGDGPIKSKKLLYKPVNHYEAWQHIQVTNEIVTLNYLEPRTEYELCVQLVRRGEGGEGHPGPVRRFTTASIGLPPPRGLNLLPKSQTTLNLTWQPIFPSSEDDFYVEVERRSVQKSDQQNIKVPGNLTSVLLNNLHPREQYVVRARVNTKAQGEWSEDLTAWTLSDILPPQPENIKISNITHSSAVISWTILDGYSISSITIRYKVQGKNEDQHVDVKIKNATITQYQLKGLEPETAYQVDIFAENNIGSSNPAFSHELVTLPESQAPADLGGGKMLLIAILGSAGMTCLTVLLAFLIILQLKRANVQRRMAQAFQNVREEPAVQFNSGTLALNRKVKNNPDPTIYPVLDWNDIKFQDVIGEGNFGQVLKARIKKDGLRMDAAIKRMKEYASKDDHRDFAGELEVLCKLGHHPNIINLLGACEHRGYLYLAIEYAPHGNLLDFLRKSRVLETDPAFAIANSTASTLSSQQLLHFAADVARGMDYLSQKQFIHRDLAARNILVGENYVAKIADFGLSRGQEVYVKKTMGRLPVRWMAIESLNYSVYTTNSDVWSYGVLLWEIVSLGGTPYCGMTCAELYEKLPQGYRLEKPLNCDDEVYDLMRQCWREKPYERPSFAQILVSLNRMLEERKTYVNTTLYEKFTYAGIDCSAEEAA
Description: Tie2 Fluorescence Polarization Kinase Activity Assay: (TIE2-FP)
Activation of Recombinant Tie2 Activation:
Recombinant GST-Tie2 was activated by incubating the enzyme in 20 mM Tris-HCl, pH 7.5, 12 mM MgCl2, 100 mM NaCl, 20 μM sodium vanidate, 1 mM DTT and 300 μM ATP at room temperature for 2 hours. The activation mixture was then passed through a NAP-25 desalting column (Pharmacia Biotech cat. no. 17-0852-02) to remove the free ATP. The activated enzyme was stored as aliquots at −80° C. in 20 mM Tris-HCl, pH 7.5 and 100 mM NaCl.
The final assay conditions were 50 mM HEPES, pH 7.5, 5% DMSO (when screening compounds), 200 μM ATP, 5 mM MgCl2, 1 mM DTT, 50 μM sodium vanidate, 1 nM activated enzyme, and 200 μM peptide. IC50's of compounds were measured under subsaturating ATP (200 μM) and varing concentrations of activated Tie2 and peptide substrate (RFWKYEFWR-OH; MW 1873 Da, TFA salt). Panvera Anti-phosphotyrosine antibody (Cat#P2840) and PTK Green Tracer (Cat#P2842) were used to detect the phosphorylated peptide. Polarization was measured on a TECAN Polarion in 138-second cycles for 30 minutes at room temperature. IC50's were then determined from the % polarization using normal calculation methods.

| Compound | IC50 (GST-VEGFR2) [nM] | IC50 (Recombinant GST-Tie2) [nM] | TIE2-FP (Recombinant GST-Tie2) | VEGF-E (GST-VEGFR2) |
| --- | --- | --- | --- | --- |
| CN(c1ccc2c(c1)nc(NCc1ccc(F)cc1)n2C)c1ccnc(Nc2cccc(S(N)(=O)=O)c2)n1 [Example 11, 3-(4-{[2-(4-Fluoro-benzylamino)-1-methyl-1H-benzoimidazol-5-yl]-methyl-amino}-pyrimidin-2-ylamino)-benzenesulfonamide hydrochloride] | < 100 | – | – | – |
| CNS(=O)(=O)CCc1ccc(Nc2nccc(N(C)c3ccc4c(c3)nc(NC(C)C)n4C)n2)cc1 [Example 90, 2-(4-{4-[(2-Isopropylamino-1-methyl-1H-benzoimidazol-5-yl)-methyl-amino]-pyrimidin-2-ylamino}-phenyl)-ethanesulfonic acid methylamide hydrochloride] | < 100 | – | – | – |
| CC(C)Nc1nc2cc(N(C)c3ccnc(Nc4cccc(OS(C)(=O)=O)c4)n3)ccc2n1C [Example 92, hydrochloride] | 100 to 1000 | 1000 to 10000 | – | – |
| Cc1ccc(Nc2nccc(N(C)c3ccc4c(c3)nc(NCCc3ccccc3)n4C)n2)cc1S(N)(=O)=O [Example 95, 2-Methyl-5-{4-[methyl-(1-methyl-2-phenethylamino-1H-benzoimidazol-5-yl)-amino]-pyrimidin-2-ylamino}-benzenesulfonamide hydrochloride] | < 100 | 100 to 1000 | – | – |
| CN(c1ccc2c(c1)nc(Nc1ccc(C(F)(F)F)cc1)n2C)c1ccnc(Nc2ccc(CS(C)(=O)=O)cc2)n1 [Example 110, N^1-Methyl-N^5-[2-(4-Methanesulfonymethyl-phenylamino)-pyrimidin-4-yl]-N^5-methyl-N^2-(4-trifluoromethyl-phenyl)-1H-benzoimidazole-2,5-diamine] | < 100 | < 100 | – | – |
| CN(c1ccc2c(c1)nc(Nc1ccc(Cl)cc1)n2C)c1ccnc(Nc2ccc(CS(C)(=O)=O)cc2)n1 [Example 112] | < 100 | < 100 | – | – |
| CN(c1ccc2c(c1)nc(Nc1cccc(F)c1)n2C)c1ccnc(Nc2ccc(CS(C)(=O)=O)cc2)n1 [Example 118] | < 100 | 100 to 1000 | – | – |
| CN(c1ccc2c(c1)nc(Nc1ccccc1F)n2C)c1ccnc(Nc2ccc(CS(C)(=O)=O)cc2)n1 [Example 124] | < 100 | 100 to 1000 | – | – |
| CN(c1ccc2c(c1)nc(Nc1cc(C(F)(F)F)ccc1F)n2C)c1ccnc(Nc2ccc(CS(C)(=O)=O)cc2)n1 [Example 125] | < 100 | < 100 | – | – |
| Cn1c(Nc2cc(C(C)(C)C)on2)nc2cc(Nc3ccnc(Nc4ccc(CS(C)(=O)=O)cc4)n3)ccc21.O=C(O)C(F)(F)F [Example 135, N^2-(5-tert-Butyl-isoxazol-3-yl)-N^5-[2-(4-methanesulfonylmethyl-phenylamino)-pyrimidin-4-yl]-1-methyl-1-1H-benzoimidazole-2,5-diamine trifluoroacetate] | – | – | + (+ = pIC50 of 5.0-6.0) | +++ (+++ = pIC50 of >7.0) |
| Cn1c(Nc2cc(C(C)(C)C)on2)nc2cc(Nc3ccnc(Nc4cccc(CS(C)(=O)=O)c4)n3)ccc21 [Example 136, N^2-(5-tert-Butyl-isoxazol-3-yl)-N^5-[2-(3-methanesulfonylmethyl-phenylamino)-pyrimidin-4-yl]-1-methyl-1H-benzoimidazole-2,5-diamine] | < 100 | 1000 to 10000 | – | – |
| CN(c1ccc2c(c1)nc(NC(=O)Nc1ccccc1)n2C)c1ccnc(Nc2ccc(CS(C)(=O)=O)cc2)n1 [Example 142, N-(1-methyl-5-{methyl[2-({4-[(methylsulfonyl)methyl]phenyl}amino)pyrimidin-4-yl]amino}-1H-benzimidazol-2-yl)-N′-phenylurea] | < 100 | – | – | – |
| CN(c1ccc2c(c1)nc(NC(=O)Cc1cccs1)n2C)c1ccnc(Nc2ccc(CS(C)(=O)=O)cc2)n1 [Example 153] | < 100 | 1000 to 10000 | – | – |
| CN(c1ccc2c(c1)nc(NC(=O)C1CCCCC1)n2C)c1ccnc(Nc2cccc(CS(C)(=O)=O)c2)n1 [Example 157, Cyclohexanecarboxylic acid ({[2-(3-methanesulfonylmethyl-phenylamino)-pyrimidin-4-yl]-methyl-amino}-methyl-1H-benzoimidazol-2-yl)-amide] | – | – | – | +++ (+++ = pIC50 of >7.0) |
| CN(c1ccc2c(c1)nc(NC(=O)Cc1cccc(SC(F)(F)F)c1)n2C)c1ccnc(Nc2cccc(CS(C)(=O)=O)c2)n1 [Example 162, N-(5-{[2-(3-Methanesulfonylmethyl-phenylamino)-pyrimidin-4-yl]-methyl-amino}-1-methyl-1H-benzoimidazol-2-yl)-2-(3-trifluoromethylsulfanyl-phenyl)-acetamide] | < 100 | 1000 to 10000 | – | – |
| CN(c1ccc2c(c1)nc(NC(=O)Cc1cccs1)n2C)c1ccnc(Nc2cccc(CS(C)(=O)=O)c2)n1 [Example 169, N-({[2-(3-Methanesulfonylmethyl-phenylamino)-pyrimidin-4-yl]-methyl-amino}-methyl-1H-benzoimidazol-2-yl)-C-thiophen-2-yl-acetamide] | < 100 | 1000 to 10000 | – | – |
| Cc1cc(CC(=O)Nc2nc3cc(N(C)c4ccnc(Nc5ccc(CS(C)(=O)=O)cc5)n4)ccc3n2C)on1 [Example 173, N-({[2-(4-Methanesulfonylmethyl-phenylamino)-pyrimidin-4-yl]-methyl-amino}-methyl-1H-benzoimidazol-2-yl)-2-(3-methyl-isoxazol-5-yl)-acetamide] | – | – | + (+ = pIC50 of 5.0-6.0) | +++ (+++ = pIC50 of >7.0) |
| CN(c1ccc2c(c1)nc(NC(=O)Cc1ccccc1)n2C)c1ccnc(Nc2ccc(CS(C)(=O)=O)cc2)n1 [Example 202, Phenyl-N-({[2-(4-methanesulfonylmethyl-phenylamino)-pyrimidin-4-yl]-methyl-amino}-methyl-1H-benzoimidazol-2-yl)-acetamide] | < 100 | – | – | – |
| CN(c1ccc2c(c1)nc(NC(=O)C1(c3ccccc3)CC1)n2C)c1ccnc(Nc2ccc(CS(C)(=O)=O)cc2)n1 [Example 203, Phenylcyclopropanecarboxylic acid ({[2-(4-methanesulfonylmethyl-phenylamino)-pyrimidin-4-yl]-methyl-amino}-methyl-1H-benzoimidazol-2-yl)-amide] | < 100 | < 100 | – | – |
| COc1cccc(CC(=O)Nc2nc3cc(N(C)c4ccnc(Nc5ccc(CS(C)(=O)=O)cc5)n4)ccc3n2C)c1OC [Example 219, 2-(2,3-Dimethoxyphenyl)-N-(5-{[2-(4-methanesulfonylmethyl-phenylamino)-pyrimidin-4-yl]-methyl-amino}-1-methyl-1H-benzoimidazol-2-yl)-acetamide] | < 100 | – | – | – |
| CN(c1ccc2c(c1)nc(NC(=O)Cc1ccc3c(c1)OCO3)n2C)c1ccnc(Nc2ccc(CS(C)(=O)=O)cc2)n1 [Example 239, Benzo[1,3]dioxol-5-yl-N-({[2-(4-methanesulfonylmethyl-phenylamino)-pyrimidin-4-yl]-methyl-amino}-methyl-1H-benzoimidazol-2-yl)-acetamide] | 100 to 1000 | – | – | – |
| N-({[2-(3-methanesulfonylmethyl-phenylamino)-pyrimidin-4-yl]-methyl-amino}-methyl-1H-benzoimidazol-2-yl)-3,5-bis-trifluoromethyl-benzamide [Example 156] | – | – | – | ++ (++ = pIC50 of 6.0-7.0) |
